Measured values from patent US20130150430A1, “Methods for Impairing the P53/HDM2 Auto-Regulatory Loop in Multiple Myeloma Development Using mIR-192, mIR-194 and mIR-215” (THE OHIO STATE UNIVERSITY, priority 2011, published 2013).

How the values were obtained:
Format in all cases: cell-based, human
[1] = system: WT p53 MM cells; test: Colony suppression assay after lentiviral miRNA transduction; conditions: lentivirus-transduced WT p53 cells; miR-34a internal control; scored at 14 days
Method: FIG. 3E, FIG. 3F: Soft agar colony suppression assay in WT TP53 and mutant TP53 MM cell lines after miRNAs transduction by lentivectors.
A total of 30×10^3 cells were infected with Lenti-mir-192: PMIRH 192-PA-1 Lenti-mir-194-1:PMIRH 1941PA-1; Lenti-mir-215:PMIRH 215 PA-1; Control Lentivector(pCDH-CMV-EFI-copGFP cDNA cloning and Expression vector): CD511 B-1 (System Biosciences) as per the manufacturer's protocol. MM cells were plated in quadruplicate in 1 mL of methylcellulose medium for Mouse cells (Cat#03234, Stem cell Technologies) in 6-well culture plates. Colonies consisting of more than 40 (125μ) cells were scored at 14 days.

[2] = system: MDM2 mRNA in MM1s and NCI-H929 cells; test: RT-PCR of MDM2 mRNA after miRNA transfection and Nutlin-3a; conditions: transfected cells at 6 and 12 hr of Nutlin-3a treatment, both cell lines
Method: FIG. 4F: MDM2 mRNA expression normalized for GAPDH mRNA expression in MM1s and NCIH929 cells miRNAs or Scr transfected after Nutlin-3a treatment (6-12 hr).
RNA was isolated from cell lines using Trizol reagent (Invitrogen) as per the manufacturer's protocol. An aliquot of 5 μg RNA was then used for cDNA synthesis using the SuperScript first strand cDNA synthesis kit (Invitrogen). RT-PCRs were carried out using ABI Prism 7900HT sequence detection systems with Applied Biosystems TaqMan Gene expression assays (p21 (CDKN1A):Hs01121172_ml; MYC:Hs99999003_ml; TP53:Hs00153349_ml; MDM2: Hs01066938_ml).

[3] = system: NCI-H929 and RPMI-8226 IGF-1 treated cells; test: Adhesion assay on fibronectin in response to IGF-1; conditions: ectopic expression, vs Scr control
Method: FIG. 21A, FIG. 21B: MM1s and RPMI-8226 cells (pre-miRNA-192, -194, -215, Scr sequence-transfected) at 48 hr after transfection were harvested, treated with calcein and incubated with IGF-1 (50 ng/ml) and their ability to adhere to fibronectin plates was assessed by fluorescence assay. MM1s (FIG. 21A) and RPMI-8226 (FIG. 21B) with ectopic re-expression of miR-192, 215 and also miR-194 lost their ability to respond to IGF-1 treatment compare to Scr sequence.
Before adhesion, MM cell lines were starved overnight in RPMI 1640/0.5% BSA, without loss of viability. Cells (5×10^6/ml) were labeled with calcein-a.m. (Molecular Probes, Eugene, Oreg.) for 30 min at 37° C., washed, and resuspended in adhesion medium (RPMI 1640/10% FBS). Cells were stimulated with or without IGF-1 at 0-200 ng/ml for 20 min and added in triplicate to Fibronectin-coated 48 well plates (BD Biosciences #354506, Bedford, Mass.) at 37° C. for 30 min, and unbound cells were removed by four washes with RPMI1640. The absorbance of each well was measured using 492/520 nm filter set with a fluorescence plate reader (Wallac VICTOR2; Perkin-Elmer, Boston, Mass.).

[4] = system: NCI-H929 and RPMI-8226 IGF-1 treated cells; test: Intra-epithelial trans-well migration assay with IGF-1 as attractant; conditions: ectopic expression, vs Scr control
Excerpt: FIG. 7B: Intra-epithelial migration assay in MM cells miRNAs transfected using HS-5 cells at different concentrations of IGF-1 as attractant. Bars indicate relative fold change of migration compared with the control ±SD.
FIG. 21C: Intra-epithelial migration assay in MM1s and RPMI-8226 cells (pre-miRNA-192, -194, -215, Scr-transfected) using HS-27A stromal cell as cellular layer at different concentrations of IGF-1 as attractant. Bars indicate relative fold change of migration compared with the control. All experiments were performed in triplicate.
To this end, the inventors used intra-epithelial trans-well migration assay with IGF-1 at various concentrations as attractant and two bone marrow-derived stromal cells, HS-5 (fibroblast-like) and HS-27A (epithelial-like) as cell layer.
IGF-I-induced MM transendothelial migration was determined using 24 well, 6.5 mm internal diameter transwell cluster plates with polycarbonate membranes ([…] pore size) separating the 2 chambers (Corning Costar, Cambridge, Mass.). Bone marrow stromal cell lines HS-5 and HS-27A were grown on the insert for 24 hrs to produce a confluent monolayer. […] At the end of the incubation period, cells migrating through endothelial or bone marrow stromal cell layers into the lower chamber were harvested, stained with trypan blue, and counted under a microscope.

Substance | colony formation [1] | MDM2 mRNA levels [2] | cell adhesion [3] | migration and tissue invasion [4]
miR-215: microRNA, p53-activated, down-regulated in MM; transfected as miRNA precursor (Ambion) or lentivector; SEQ ID NO:58 (AUGACCUAUGAAUUGACAGAC; listed as RNA, chemistry not given here; listed as Homo sapiens) | suppressed colony formation to an extent comparable to miR-34a | strongly reduced | significant decrease | significant decrease
miR-192: microRNA, p53-activated, down-regulated in MM; transfected as miRNA precursor (Ambion) or lentivector; SEQ ID NO:56 (CUGACCUAUGAAUUGACAGCC; listed as RNA, chemistry not given here; listed as Homo sapiens) | suppressed colony formation to an extent comparable to miR-34a | strongly reduced | significant decrease | significant decrease
